This note sets out measurements from patent publication US9340590B2 (priority 2011, dated 2016).

Holding throughout (assay): cell-based
The target of one assay is hNav1.3 (Homo sapiens, UniProt Q9NY46). As to conditions: IonWorks Quattro, use-dependent block, hNav1.3; read-out: IWQ Use Nav1.3. For orientation: In patch-clamp work, channel activity is measured electrically.
The next assay has as its target hNav1.7 (Homo sapiens, UniProt Q15858). It is filed as cell-based. As to conditions: IonWorks Quattro, use-dependent block, hNav1.7; read-out: IWQ Use Nav1.7.
Another assay deals with hNav1.5 (Homo sapiens, UniProt Q14524).
Chain of hNav1.5 (Q14524 whole entry, looked up): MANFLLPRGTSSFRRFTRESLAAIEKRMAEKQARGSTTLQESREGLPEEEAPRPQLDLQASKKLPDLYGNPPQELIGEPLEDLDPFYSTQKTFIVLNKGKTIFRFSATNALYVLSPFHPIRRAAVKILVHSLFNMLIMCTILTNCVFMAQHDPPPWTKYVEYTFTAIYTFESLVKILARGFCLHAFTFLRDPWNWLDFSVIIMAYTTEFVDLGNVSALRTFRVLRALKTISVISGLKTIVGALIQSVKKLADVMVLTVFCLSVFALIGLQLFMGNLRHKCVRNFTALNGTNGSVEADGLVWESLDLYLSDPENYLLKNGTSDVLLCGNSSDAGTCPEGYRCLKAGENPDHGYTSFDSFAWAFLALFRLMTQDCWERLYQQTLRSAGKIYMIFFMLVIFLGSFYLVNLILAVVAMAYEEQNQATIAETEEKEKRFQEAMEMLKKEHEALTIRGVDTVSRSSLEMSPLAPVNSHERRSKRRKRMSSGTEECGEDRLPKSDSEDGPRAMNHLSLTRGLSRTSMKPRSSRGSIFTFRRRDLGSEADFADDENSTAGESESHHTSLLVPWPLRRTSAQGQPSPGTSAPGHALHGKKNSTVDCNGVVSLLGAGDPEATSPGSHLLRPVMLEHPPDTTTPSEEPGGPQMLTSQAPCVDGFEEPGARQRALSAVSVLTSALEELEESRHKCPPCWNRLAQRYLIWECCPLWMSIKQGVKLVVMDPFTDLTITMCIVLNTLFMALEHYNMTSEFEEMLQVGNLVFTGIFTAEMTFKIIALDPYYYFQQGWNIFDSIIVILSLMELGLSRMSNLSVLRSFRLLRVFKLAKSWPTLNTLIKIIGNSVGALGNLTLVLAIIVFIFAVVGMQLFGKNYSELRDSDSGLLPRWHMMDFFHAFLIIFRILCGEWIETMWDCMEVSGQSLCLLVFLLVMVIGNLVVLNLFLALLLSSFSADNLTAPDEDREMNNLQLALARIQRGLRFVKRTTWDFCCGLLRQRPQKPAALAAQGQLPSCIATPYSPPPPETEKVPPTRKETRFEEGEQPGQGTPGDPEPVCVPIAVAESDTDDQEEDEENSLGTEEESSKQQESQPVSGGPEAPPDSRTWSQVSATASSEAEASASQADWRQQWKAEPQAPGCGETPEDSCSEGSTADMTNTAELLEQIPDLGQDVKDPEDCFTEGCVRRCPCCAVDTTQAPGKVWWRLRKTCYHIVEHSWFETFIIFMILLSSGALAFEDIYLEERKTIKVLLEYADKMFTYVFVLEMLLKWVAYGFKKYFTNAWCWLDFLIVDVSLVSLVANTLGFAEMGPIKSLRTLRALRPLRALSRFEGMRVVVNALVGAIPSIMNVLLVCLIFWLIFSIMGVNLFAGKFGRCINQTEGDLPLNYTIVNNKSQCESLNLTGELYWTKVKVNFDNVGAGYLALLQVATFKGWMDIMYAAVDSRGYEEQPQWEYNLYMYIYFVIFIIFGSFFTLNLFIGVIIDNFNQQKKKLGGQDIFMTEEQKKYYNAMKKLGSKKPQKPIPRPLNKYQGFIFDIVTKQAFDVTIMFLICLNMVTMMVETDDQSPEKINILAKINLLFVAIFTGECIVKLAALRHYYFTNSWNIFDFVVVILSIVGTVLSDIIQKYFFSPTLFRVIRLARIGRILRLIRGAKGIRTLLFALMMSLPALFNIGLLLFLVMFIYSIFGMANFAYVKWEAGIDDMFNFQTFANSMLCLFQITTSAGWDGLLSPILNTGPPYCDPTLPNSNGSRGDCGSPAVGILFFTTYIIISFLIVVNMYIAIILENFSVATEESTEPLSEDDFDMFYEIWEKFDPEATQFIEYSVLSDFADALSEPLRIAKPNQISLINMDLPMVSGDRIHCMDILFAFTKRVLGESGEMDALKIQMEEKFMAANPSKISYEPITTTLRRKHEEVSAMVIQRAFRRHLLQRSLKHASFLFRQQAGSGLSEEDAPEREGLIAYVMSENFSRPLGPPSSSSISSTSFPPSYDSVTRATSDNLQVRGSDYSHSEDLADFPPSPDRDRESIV
Setting [1] is: IonWorks Quattro, use-dependent block, hNav1.5, read-out: IWQ Use Nav1.5.

The structures appear in SMILES notation. Read-outs that look alike come from different tables or passages of the source. Positions of bridges follow the written chain, without caps; N, C: chain ends. Non-standard residues stand in square brackets, D forms with d. Residues, ends and D or L forms follow the SMILES beside them. Abu = CC[C@H](N)C(=O)O

Chain of hNav1.7 (Q15858 whole entry, looked up): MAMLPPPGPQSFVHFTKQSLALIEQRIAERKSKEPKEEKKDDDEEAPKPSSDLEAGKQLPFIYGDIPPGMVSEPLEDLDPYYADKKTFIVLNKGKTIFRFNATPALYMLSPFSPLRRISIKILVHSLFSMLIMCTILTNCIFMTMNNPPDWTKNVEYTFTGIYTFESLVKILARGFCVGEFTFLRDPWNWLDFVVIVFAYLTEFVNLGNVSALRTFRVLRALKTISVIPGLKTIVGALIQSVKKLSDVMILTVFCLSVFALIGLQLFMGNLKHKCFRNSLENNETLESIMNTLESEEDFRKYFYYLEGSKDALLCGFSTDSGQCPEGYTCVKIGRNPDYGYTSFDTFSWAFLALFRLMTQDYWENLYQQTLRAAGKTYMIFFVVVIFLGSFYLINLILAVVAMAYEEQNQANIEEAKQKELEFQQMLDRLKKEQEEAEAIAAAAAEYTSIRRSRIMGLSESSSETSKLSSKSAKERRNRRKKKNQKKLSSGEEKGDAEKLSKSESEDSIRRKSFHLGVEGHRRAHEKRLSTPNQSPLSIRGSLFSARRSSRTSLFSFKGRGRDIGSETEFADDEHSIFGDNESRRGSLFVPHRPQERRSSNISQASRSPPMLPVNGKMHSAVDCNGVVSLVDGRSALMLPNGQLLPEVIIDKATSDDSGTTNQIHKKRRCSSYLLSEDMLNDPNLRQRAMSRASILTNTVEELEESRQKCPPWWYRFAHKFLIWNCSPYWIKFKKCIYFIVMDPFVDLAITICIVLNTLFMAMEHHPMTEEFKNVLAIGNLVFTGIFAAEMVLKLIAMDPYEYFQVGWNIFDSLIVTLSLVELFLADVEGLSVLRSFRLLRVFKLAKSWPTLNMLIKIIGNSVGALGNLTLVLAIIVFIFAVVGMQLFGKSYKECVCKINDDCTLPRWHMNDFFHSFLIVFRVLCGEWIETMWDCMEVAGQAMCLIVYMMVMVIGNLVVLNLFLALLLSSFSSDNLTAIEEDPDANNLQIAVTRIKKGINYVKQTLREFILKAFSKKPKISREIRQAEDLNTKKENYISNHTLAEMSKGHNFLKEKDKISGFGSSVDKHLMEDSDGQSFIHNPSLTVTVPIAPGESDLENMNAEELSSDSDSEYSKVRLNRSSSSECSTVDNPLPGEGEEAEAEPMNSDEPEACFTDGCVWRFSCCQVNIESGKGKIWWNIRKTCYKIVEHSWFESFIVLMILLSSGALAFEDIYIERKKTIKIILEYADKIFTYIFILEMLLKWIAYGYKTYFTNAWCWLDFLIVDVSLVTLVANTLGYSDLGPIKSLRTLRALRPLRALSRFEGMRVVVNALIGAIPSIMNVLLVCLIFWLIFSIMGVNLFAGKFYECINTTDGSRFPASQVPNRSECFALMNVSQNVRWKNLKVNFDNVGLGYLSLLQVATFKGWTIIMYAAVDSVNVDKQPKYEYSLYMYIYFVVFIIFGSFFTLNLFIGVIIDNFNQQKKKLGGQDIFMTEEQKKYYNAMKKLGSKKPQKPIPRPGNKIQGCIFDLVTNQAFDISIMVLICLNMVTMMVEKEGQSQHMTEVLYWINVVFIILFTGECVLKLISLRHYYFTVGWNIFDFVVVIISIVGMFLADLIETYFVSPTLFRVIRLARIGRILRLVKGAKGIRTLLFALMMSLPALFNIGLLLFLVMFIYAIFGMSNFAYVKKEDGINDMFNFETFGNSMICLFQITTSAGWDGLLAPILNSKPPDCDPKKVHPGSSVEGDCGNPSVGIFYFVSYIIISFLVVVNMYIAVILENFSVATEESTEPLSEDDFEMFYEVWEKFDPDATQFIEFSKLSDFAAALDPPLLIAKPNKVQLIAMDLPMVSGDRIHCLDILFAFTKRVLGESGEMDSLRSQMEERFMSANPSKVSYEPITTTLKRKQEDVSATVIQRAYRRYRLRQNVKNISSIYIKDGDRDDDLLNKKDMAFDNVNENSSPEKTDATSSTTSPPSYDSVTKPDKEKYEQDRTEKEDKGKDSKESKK

Turning to `CC[C@H](C)[C@@H]1NC(=O)[C@@H]2CSSC[C@@H]3NC(=O)[C@H](C(C)C)NC(=O)[C@H](CC(C)C)NC(=O)[C@H](CC(N)=O)NC(=O)[C@@H]4CCCN4C(=O)[C@H](CCCNC(=N)N)NC(=O)[C@H](CSSC[C@H](NC(=O)[C@@H](N)CC(=O)O)C(=O)N[C@@H](CC(C)C)C(=O)NCC(=O)N[C@@H](C)C(=O)N[C@@H](CCSC)C(=O)N[C@@H](CCCNC(=N)N)C(=O)N[C@@H](CCCCN)C(=O)N2)NC(=O)[C@H](CSSC[C@@H](C(=O)N[C@@H](CCCCN)C(=O)N[C@@H](Cc2ccc(O)cc2)C(=O)N[C@H](C(=O)N[C@@H](Cc2ccccc2)C(N)=O)C(C)C)NC(=O)[C@H](Cc2c[nH]c4ccccc24)NC(=O)[C@H](CCCCN)NC(=O)[C@H](Cc2cnc[nH]2)NC(=O)[C@H](CC(C)C)NC(=O)[C@H](CCCNC(=N)N)NC(=O)[C@H](CO)NC3=O)NC(=O)[C@H](CCCCN)NC(=O)[C@H](CC(=O)O)NC(=O)[C@H](CC(N)=O)NC(=O)[C@H](CC(=O)O)NC(=O)[C@@H]2CCCN2C1=O` [compound 255] (H-DCLGAMRKCIPDNDKCCRPNLVCSRLHKWCKYVF-NH2; disulfide 2-17, 9-23, 16-30), the IC50 at hNav1.3 stood at 0.68 µM; at hNav1.7, 0.28 µM; against hNav1.5 (IWQ Use Nav1.5 (μM)) it was 5 µM.

Take `CC[C@H](C)[C@@H]1NC(=O)[C@@H]2CSSC[C@@H]3NC(=O)[C@H](C(C)C)NC(=O)[C@H](CC(C)C)NC(=O)[C@H](CC(N)=O)NC(=O)[C@@H]4CCCN4C(=O)[C@H](CCCNC(=N)N)NC(=O)[C@H](CSSC[C@H](NC(=O)[C@@H](N)CC(=O)O)C(=O)N[C@@H](CC(C)C)C(=O)NCC(=O)N[C@@H](C)C(=O)N[C@@H](CC(C)C)C(=O)N[C@@H](CCCNC(=N)N)C(=O)N[C@@H](CCCCN)C(=O)N2)NC(=O)[C@H](CSSC[C@@H](C(=O)N[C@@H](CCCCN)C(=O)N[C@@H](Cc2ccc(O)cc2)C(=O)N[C@H](C(=O)N[C@@H](Cc2ccccc2)C(N)=O)C(C)C)NC(=O)[C@H](Cc2c[nH]c4ccccc24)NC(=O)[C@H](CCC(=O)O)NC(=O)[C@H](Cc2c[nH]cn2)NC(=O)[C@H]([C@@H](C)O)NC(=O)[C@H](CCCNC(=N)N)NC(=O)[C@H](CO)NC3=O)NC(=O)[C@H](CCCCN)NC(=O)[C@H](CC(=O)O)NC(=O)[C@H](CC(N)=O)NC(=O)[C@H](CC(=O)O)NC(=O)[C@@H]2CCCN2C1=O` [compound 728]: the IC50 came to 6.6 µM at hNav1.3, 1.6 µM at hNav1.7 and 43 µM at hNav1.5 (setting [1]).

On to `CC[C@@H]1NC(=O)[C@@H]2CSSC[C@@H](C(=O)N[C@@H](CCCCN)C(=O)N[C@@H](Cc3ccc(O)cc3)C(=O)N[C@H](C(=O)N[C@@H](Cc3ccccc3)C(N)=O)C(C)C)NC(=O)[C@H](Cc3c[nH]c4ccccc34)NC(=O)[C@H](CCCCN)NC(=O)[C@H](Cc3c[nH]cn3)NC(=O)[C@H]([C@@H](C)O)NC(=O)[C@H](CCCNC(=N)N)NC(=O)[C@H](CO)NC(=O)[C@H](CSSC[C@H](NC(=O)[C@H](CCCCN)NC(=O)[C@H](CCCNC(=N)N)NC(=O)[C@H](CCSC)NC(=O)[C@H](Cc3ccccc3)NC(=O)CNC(=O)[C@H](CC(C)C)NC(=O)[C@H](CC)NC(=O)[C@@H](N)CC(=O)O)C(=O)N[C@@H]([C@@H](C)CC)C(=O)N3CCC[C@H]3C(=O)N[C@@H](CC(=O)O)C(=O)N[C@@H](CC(N)=O)C(=O)N[C@@H](CC(=O)O)C(=O)N[C@@H](CCCCN)C(=O)N2)NC(=O)[C@H](C(C)C)NC(=O)[C@H](CC(C)C)NC(=O)[C@H](CC(N)=O)NC(=O)[C@@H]2CCCN2C(=O)[C@H](CCCNC(=N)N)NC1=O` [SEQ ID NO: 125, [2-Abu-2,17]GpTx-1] (H-D[Abu]LGFMRKCIPDNDKC[Abu]RPNLVCSRTHKWCKYVF-NH2; disulfide 9-23, 16-30), for which the IC50 at hNav1.3 was found to be 0.24 µM; at hNav1.7, 0.3 µM; on hNav1.5 (setting [1]), 9.51 µM.
